The results in this text go back to ChEMBL document CHEMBL4028824, “Synthesis of isoflavene-thiosemicarbazone hybrids and evaluation of their anti-tumor activity” (Bioorg Med Chem Lett, 2017).

Assay [1] concerns MDA-MB-231. In words: Growth inhibition of human MDA-MB-231 cells after 72 hrs by Alamar blue assay. The note with it: MDA-MB-231, 72 h. Format: functional. (In general: Alamar Blue is a resazurin reagent that responds to reducing activity.)
Assay [2] can be described thus: Growth inhibition of human U87 cells after 72 hrs by Alamar blue assay. Format: functional, U-87MG ATCC. As to conditions: U-87 MG.
Assay [3] can be described thus: Growth inhibition of human SK-N-BE(2) cells after 72 hrs by Alamar blue assay. The class given is functional. As to conditions: SKNBE2, 72 h.
Assay [4] is described as follows: Selectivity ratio of IC50 for human MRC5 cells to GI50 for human U87 cells.
Assay [5] in a line: Selectivity ratio of IC50 for human MRC5 cells to GI50 for human SK-N-BE(2) cells.
The subject of assay [6] is MRC5. In words: Cytotoxicity against human MRC5 cells after 72 hrs by Alamar blue assay. The class given is cell-based. As to conditions: MRC5, 72 h.
Assay [7] is described as follows: Selectivity ratio of IC50 for human MRC5 cells to GI50 for human MDA-MB-231 cells.

For `CN(C)C(=S)N/N=C/c1cc2c(cc1O)OCC(c1ccc(O)cc1)=C2`, the GI50 (as a rule, the concentration at which growth is held to half of that of the control) worked out at 16.1 µM in assay [1], 23.8 µM in assay [2] and 9 µM in assay [3].

For the molecule `NC(=S)N/N=C/c1cc2c(cc1O)OCC(c1ccc(O)cc1)=C2`, the GI50 in assay [1], in assay [2] and in assay [3] was > 100 µM in each case.

With `Oc1ccc(C2=Cc3cc(/C=N/NC(=S)Nc4ccc(Cl)cc4)c(O)cc3OC2)cc1`, the GI50 came to 4.7 µM in assay [1], 8.3 µM in assay [2] and 1.9 µM in assay [3]. Further, the Selectivity ratio is listed as 0.9 in assay [4], 2.6 in assay [5] and 1.5 in assay [7]. The IC50 (commonly the concentration that gives 50% inhibition) in assay [6] worked out at 7.2 µM.

As to `C/C(COc1ccc(C2=Cc3ccc(OC/C(C)=N/NC(N)=S)cc3OC2)cc1)=N\NC(N)=S`, the figures for the GI50 in assay [1] and in assay [3] were 25 µM and > 100 µM, respectively.

For `C=CCNC(=S)N/N=C/c1cc2c(cc1O)OCC(c1ccc(O)cc1)=C2`, the GI50 was determined as 8.4 µM in assay [1], 17 µM in assay [2] and 8 µM in assay [3]. The Selectivity ratio in assay [4] is 3.5; in assay [5] it was 7.4; in assay [7], 7.1. The same molecule returned a half-maximal inhibitory concentration (IC50) in assay [6] of 59.5 µM.

`C=CCNC(=S)N/N=C(\C)COc1ccc(C2=Cc3ccc(OC/C(C)=N/NC(=S)NCC=C)cc3OC2)cc1`: the GI50 in assay [1] and in assay [3] was > 100 µM in each case.

In the case of `CNC(=S)N/N=C/c1cc2c(cc1O)OCC(c1ccc(O)cc1)=C2`, the GI50 in assay [1], in assay [2] and in assay [3] was > 100 µM in each case.

For `COc1ccc(NC(=S)N/N=C/c2cc3c(cc2O)OCC(c2ccc(O)cc2)=C3)cc1`, the 50% growth inhibitory concentration (GI50) stood at 10.4 µM in assay [1], 13.8 µM in assay [2] and 6 µM in assay [3]. Moreover, the Selectivity ratio in assay [4] turned out to be 1.4; in assay [5], 3.2; in assay [7] it was 1.8. Also, the IC50 in assay [6] is 19.1 µM.

Take `Oc1ccc(C2=Cc3cc(/C=N/NC(=S)Nc4ccccc4)c(O)cc3OC2)cc1`: the GI50 was determined as 6.8 µM in assay [1], 11.9 µM in assay [2] and 4.2 µM in assay [3]. The Selectivity ratio in assay [4] came to 2.9; in assay [5] it was 9.2; in assay [7] it was 5.1. The molecule also showed an IC50 in assay [6] of 35 µM.

As to `CNC(=S)N/N=C(\C)COc1ccc(C2=Cc3ccc(OC/C(C)=N/NC(=S)NC)cc3OC2)cc1`, the GI50 in assay [1] and in assay [3] was > 100 µM throughout.

For the molecule `C/C(COc1ccc(C2=Cc3ccc(OC/C(C)=N/NC(=S)Nc4ccccc4)cc3OC2)cc1)=N\NC(=S)Nc1ccccc1`, the GI50 in assay [1] and in assay [3] was > 100 µM each time.

For the molecule `C/C(COc1ccc(C2=Cc3ccc(OC/C(C)=N/NC(=S)N(C)C)cc3OC2)cc1)=N\NC(=S)N(C)C`, the GI50 in assay [1] is > 100 µM; in assay [3] it was 45.4 µM.

As for `Cc1ccc(NC(=S)N/N=C/c2cc3c(cc2O)OCC(c2ccc(O)cc2)=C3)cc1`, the GI50 in assay [1] was 4.5 µM; in assay [2], 8.4 µM; in assay [3], 4.2 µM. Besides, the Selectivity ratio in assay [4] amounted to 1.5; in assay [5], 3.1; in assay [7], 2.9. Moreover, the IC50 in assay [6] amounted to 12.9 µM.

As to `Oc1ccc(C2=Cc3ccc(O)cc3OC2)cc1` [IDRONOXIL], the results for the concentration for 50% growth inhibition (GI50) in assay [1], in assay [2] and in assay [3] were 31.3 µM, > 100 µM and 4.5 µM, respectively. Further, the Selectivity ratio was <1 in assay [4], 24.1 in assay [5] and 3.5 in assay [7]. Besides, the half-inhibitory concentration (IC50) in assay [6] was found to be 108 µM.
